Data from patent US20190008810A1, “METHOD FOR PREVENTION, TREATMENT AND ALLEVIATION OF INFECTIOUS DISEASES AND DISORDERS” (REPLICON HEALTH OY, priority 2016, published 2019).
Where two headings read alike, the source gives them in different places.

Legend:
severe IBD = type: in vivo, human
Source text: During the year following acute bowels infection and inflammation described in above (Example 1 e) they were placed by a specialist MD into queue for demanding operation to remove inflammation prone part from their bowels. While waiting for this operation (roughly a year from above described previous serious bowels inflammation (IBD)) S4 got serious IBD again. This happened as a follow up of two-week business trip during which the diet was not at all optimal and working was rather intensive.
By Saturday the symptoms were so severe that S4 could not walk properly. It was decided that […] rests for the weekend and goes to a doctor on Monday morning.
Because based on Example 1 e it is already known that the DGA Activation can efficiently reduce IBD in S4, it was decided that S4 starts using DGA immediately to reduce the inflammation. (Also, all other information presented in this application, including all other experiments and dose response analyses were available already, except for Example 1 g.) Initial dose was set relatively high because the inflammation was very severe and because it is known from all other experiments that there were no negative effects for S4 from the DGA Activation. 3×200 mg mixed into 2 dl of water was taken 3 times during Saturday, first dose at 0300 pm, next dose 2 hours thereafter and the last dose 4 hours after the second dose, i.e. at 0900 pm. Inflammatory symptoms remained high but fever reduced from 36.80 Celsius (before DGA activation) to 36.03 by 0939 pm. Paracetamol (1000 mg) was taken after the last fever measurement thus not affecting the decline. Another paracetamol was taken earlier the day at 0346 pm.

[1] = system: eimeria acervulina, eimeria maxima and eimeria tenella; assay: Coccidial challenge in broiler chickens, Example 1g; type: in vivo; details: for overall lesion score, difference to 0-control: day 21

SMILES: O=C(O)[C@H](O)CO [DGA, D-glyceric acid]
- time to restoring defecation (severe IBD; S4): 12 to 16 h
- Blood CRP (severe IBD; S4, Friday 1100 am): 11
- CRP level (severe IBD; S4, Monday 0030 pm, 3×200 mg four times a day): 85
- fever (severe IBD; S4, Saturday 0939 pm after 3 doses of 3×200 mg, 36.80 before): 36.03 Celsius
- fever (severe IBD; S4, Sunday 0115 pm, normal 36.1): 35.83
- fever (severe IBD; S4, Sunday 0145): 36.16
- CRP (severe IBD; S4, Wednesday noon, without antibiotics): 22
- side effects (severe IBD; in vivo): did not cause any side effects
- mortality after 14 days ([1]; DGA1 group): no mortality
- oocyst count at 7 and 11 days post infection ([1]; DGA1 group): decreased in DGA1 group already in 7 days to similar levels than in P-control
- oocyst count at 5 days (acute phase) ([1]; DGA1 group): less than in 0-control
- feed conversion rate (FCR) vs 0-control ([1]; DGA1 group, appr. 9 mg/kg/day DGAcs in feed, 14-35, 21-35, 28-35 days, p-values 0.04 to 0.05): statistically significantly better
- overall lesion score, difference to 0-control ([1]; DGA1 group): statistically significant only in P-control
- body weight gain (14-35 days) vs 0-control ([1]; DGA1 group, p-value 0.002): statistically very significantly higher
- difference in oocyst counts after the infection vs 0-control ([1]; DGA1 group, pairwise t-test p 0.04): statistically significant
- number of oocyst in 7 and 11 day measurements ([1]; DGA½ group): declined to almost similar levels than in P-control
- feed conversion rate (FCR) vs 0-control ([1]; DGA½ group, appr. 4.5 mg/kg/day): better compared to 0-control
- overall lesion score, difference to 0-control ([1]; DGA½ group): statistically significant only in P-control
- mortality after 14 days ([1]; DGA½ group, one bird clearly ill at slaughtering): no mortality
- difference in oocyst counts after the infection vs 0-control ([1]; DGA½ group, pairwise t-test p 0.03): statistically significant
